According to patent US9795139B2, “Molecules having pesticidal utility, and intermediates, compositions, and processes, related thereto” (priority 2015, dated 2017):

How the values were obtained:
Type in all cases: in vivo
[1] = system: Yellow Fever Mosquito (Aedes aegypti, AEDSAE); conditions: about 1 day-old larvae, 96-well plate from 4000 ppm DMSO master, 3 days at room temperature
Method in brief: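 Aedes aegypti larvae (about 1 day old) in liver-powder water were added to plates dispensed from DMSO master plates (4000 ppm stock) diluted with 90:10 water/acetone; six replicate plates per master. Lidded plates were held at room temperature for 3 days, then each well was scored for mortality.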

[2] = system: Beet Armyworm (Spodoptera exigua, LAPHEG); assay: Bioassay on Beet Armyworm (BAW), 128-well diet tray assay; conditions: 168 h, 50 μg/cm^2 on artificial diet, second instar larvae, 25° C., five to seven days, average of eight wells, read-out: BAW % Control (or Mortality) rating
Method in brief: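 Artificial diet surface-treated with 50 μg/cm^2 test molecule in 90:10 acetone-water, dried, then infested with one to five second instar larvae per well. Held covered and vented at 25° C., 14:10 light-dark for five to seven days; percent mortality recorded per well and averaged over eight wells.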

[3] = system: Green Peach Aphid (Myzus persicae, MYZUPE); assay: Bioassay on Green Peach Aphid (GPA), foliar spray on cabbage seedlings; conditions: 72 h, 200 ppm foliar spray on cabbage seedlings, three days, Abbott corrected % control, read-out: GPA % Control (or Mortality) rating
Protocol: Certain molecules disclosed in this document were tested against GPA using procedures described in the following example. In the reporting of the results, the “GPA & YFM Rating Table” was used (See Table Section).
Cabbage seedlings grown in 3-inch pots, with 2-3 small (3-5 cm) true leaves, were used as test substrate. The seedlings were infested with 20-50 GPA (wingless adult and nymph stages) one day prior to chemical application. Four pots with individual seedlings were used for each treatment. Test molecules (2 mg) were dissolved in 2 mL of acetone/methanol (1:1) solvent, forming stock solutions of 1000 ppm test molecule.
The stock solutions were diluted 5× with 0.025% Tween 20 in water to obtain the solution at 200 ppm test molecule. A hand-held aspirator-type sprayer was used for spraying a solution to both sides of […] leaves until runoff. Reference plants (solvent check) were sprayed with the diluent only containing 20% by volume of acetone/methanol (1:1) solvent. Treated plants were held in a holding room for three days at approximately 25° C. and ambient relative humidity (RH) prior to grading. Evaluation was conducted by counting the number of live aphids per plant under a microscope. Percent control was measured using Abbott's correction formula (W. S. Abbott, “A Method of Computing the Effectiveness of an Insecticide” J. Econ. Entomol. 18 (1925), pp. 265-267) as follows. Corrected % Control=100*(X−Y)/X where X=No. of live aphids on solvent check plants and Y=No. of live aphids on treated plants. The results are indicated in the table entitled “Table ABC: Biological Results” (See Table Section).

[4] = system: Cabbage Looper (Trichoplusia ni, TRIPNI); assay: Bioassay on Cabbage Looper (CL), 128-well diet tray assay; conditions: 168 h, 50 μg/cm^2 on artificial diet, second instar larvae, 25° C., five to seven days, average of eight wells, read-out: CL % Control (or Mortality) rating
Method in brief: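 Diet-incorporation-free surface assay: 50 μg/cm^2 compound in acetone-water (90:10), dried on diet; 1–5 2nd-instar larvae/well; 8 wells; vented cover; 25° C., 14:10 L:D, 5–7 d; % mortality averaged over wells.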

| SMILES | YFM % Control (or Mortality) rating [1] | mortality at 50 µg/cm2 [2] [%] | mortality at 200 ppm [3] [%] | mortality at 50 µg/cm2 [4] [%] |
| --- | --- | --- | --- | --- |
| O=C(NC1CC(F)(F)C1)c1cc(NC(=O)[C@H]2[C@H](c3cccc(C(F)(F)F)c3)C2(Cl)Cl)ccc1Cl (relative stereo) [Molecule F19, trans-2-Chloro-5-(2,2-dichloro-3-(3-(trifluoromethyl)phenyl)cyclopropanecarboxamido)-N-(3,3-difluorocyclobutyl)benzamide] | B (More than 0-Less than 80) | 50 to 100 | 80 to 100 | 50 to 100 |
| O=C(NC1CC(F)(F)C1)c1cc(NC(=O)[C@H]2[C@H](c3ccc(OC(F)(F)F)c(Cl)c3)C2(Cl)Cl)ccc1Cl (relative stereo) [Molecule F21, trans-2-Chloro-5-(2,2-dichloro-3-(3-chloro-4-(trifluoromethoxy)phenyl)cyclopropanecarboxamido)-N-(3,3-difluorocyclobutyl)benzamide] | A (80-100) | 50 to 100 | 80 to 100 | 50 to 100 |
| CN(C(=O)c1cc(NC(=O)[C@H]2[C@H](c3cc(Cl)cc(Cl)c3)C2(Cl)Cl)ccc1Cl)C1CC(F)(F)C1 (relative stereo) [Molecule F32, trans-2-Chloro-5-(2,2-dichloro-3-(3,5-dichlorophenyl)cyclopropanecarboxamido)-N-(3,3-difluorocyclobutyl)-N-methylbenzamide] | A (80-100) | 50 to 100 | 80 to 100 | 50 to 100 |
| CN(C(=O)c1cc(NC(=O)[C@H]2[C@H](c3cc(Cl)c(Cl)c(Cl)c3)C2(Cl)Cl)ccc1Cl)C1CC(F)(F)C1 (relative stereo) [Molecule F34, trans-2-Chloro-5-(2,2-dichloro-3-(3,4,5-trichlorophenyl)cyclopropanecarboxamido)-N-(3,3-difluorocyclobutyl)-N-methylbenzamide] | A (80-100) | 50 to 100 | 0 to 80 | 50 to 100 |
| O=C(NC1CCC1)c1cc(NC(=O)[C@H]2[C@H](c3ccc(Cl)c(Cl)c3)C2(Cl)Cl)ccc1Cl (relative stereo) [Molecule F41, trans-2-Chloro-N-cyclobutyl-5-(2,2-dichloro-3-(3,4-dichlorophenyl)cyclopropanecarboxamido)benzamide] | A (80-100) | 50 to 100 | 80 to 100 | 50 to 100 |
| Cc1cc([C@H]2[C@H](C(=O)Nc3ccc(Cl)c(C(=O)NC4CC(F)(F)C4)c3)C2(Cl)Cl)cc(Cl)c1Cl (relative stereo) [Molecule F50, trans-2-Chloro-5-(2,2-dichloro-3-(3,4-dichloro-5-methylphenyl)cyclopropanecarboxamido)-N-(3,3-difluorocyclobutyl)benzamide] | D (No activity noticed in this bioassay) | 50 to 100 | 0 to 80 | 50 to 100 |
| O=C(NC1CC(F)(F)C1)c1cc(NC(=O)[C@H]2[C@H](c3cc(Cl)cc(Cl)c3)C2(Cl)Br)ccc1Cl (relative stereo) [Molecule F71, trans-5-(2-Bromo-2-chloro-3-(3,5-dichlorophenyl)cyclopropane-1-carboxamido)-2-chloro-N-(3,3-difluorocyclobutyl)benzamide] | B (More than 0-Less than 80) | 50 to 100 | 80 to 100 | 50 to 100 |
| N#Cc1cc(Cl)cc([C@H]2[C@H](C(=O)Nc3ccc(Cl)c(C(=O)NC4(C#N)CC4)c3)C2(Cl)Cl)c1 (relative stereo) [Molecule F78, trans-2-Chloro-N-(1-cyanocyclopropyl)-5-(2,2-dichloro-3-(3-chloro-5-cyanophenyl)cyclopropane-1-carboxamido)benzamide] | D (No activity noticed in this bioassay) | 50 to 100 | 0 to 80 | 50 to 100 |
